The values below come from ChEMBL document CHEMBL3351833, “Synthesis and Biological Evaluation of Pyrazolo[1,5-a]pyrimidine Compounds as Potent and Selective Pim-1 Inhibitors” (ACS Med Chem Lett, 2015).

Assay [1] has as its target Serine/threonine-protein kinase pim-2 (Homo sapiens, UniProt Q9P1W9). The experiment in a line: Inhibition of Pim2 (unknown origin) using luciferase-luciferin based ATP detection reagent by Kinase-Glo assay.
Assay [2] concerns the target Voltage-gated inwardly rectifying potassium channel KCNH2 (Homo sapiens, UniProt Q12809). The experiment in a line: Inhibition of human ERG expressed in CHO cells by automated patch clamp method. The class given is cell-based. A general note: The patch-clamp technique gives a direct electrical read-out from membranes.
The target in assay [3] is T1, Receptor-type tyrosine-protein kinase FLT3 (Homo sapiens, UniProt P36888).
T1 sequence (P36888 whole entry): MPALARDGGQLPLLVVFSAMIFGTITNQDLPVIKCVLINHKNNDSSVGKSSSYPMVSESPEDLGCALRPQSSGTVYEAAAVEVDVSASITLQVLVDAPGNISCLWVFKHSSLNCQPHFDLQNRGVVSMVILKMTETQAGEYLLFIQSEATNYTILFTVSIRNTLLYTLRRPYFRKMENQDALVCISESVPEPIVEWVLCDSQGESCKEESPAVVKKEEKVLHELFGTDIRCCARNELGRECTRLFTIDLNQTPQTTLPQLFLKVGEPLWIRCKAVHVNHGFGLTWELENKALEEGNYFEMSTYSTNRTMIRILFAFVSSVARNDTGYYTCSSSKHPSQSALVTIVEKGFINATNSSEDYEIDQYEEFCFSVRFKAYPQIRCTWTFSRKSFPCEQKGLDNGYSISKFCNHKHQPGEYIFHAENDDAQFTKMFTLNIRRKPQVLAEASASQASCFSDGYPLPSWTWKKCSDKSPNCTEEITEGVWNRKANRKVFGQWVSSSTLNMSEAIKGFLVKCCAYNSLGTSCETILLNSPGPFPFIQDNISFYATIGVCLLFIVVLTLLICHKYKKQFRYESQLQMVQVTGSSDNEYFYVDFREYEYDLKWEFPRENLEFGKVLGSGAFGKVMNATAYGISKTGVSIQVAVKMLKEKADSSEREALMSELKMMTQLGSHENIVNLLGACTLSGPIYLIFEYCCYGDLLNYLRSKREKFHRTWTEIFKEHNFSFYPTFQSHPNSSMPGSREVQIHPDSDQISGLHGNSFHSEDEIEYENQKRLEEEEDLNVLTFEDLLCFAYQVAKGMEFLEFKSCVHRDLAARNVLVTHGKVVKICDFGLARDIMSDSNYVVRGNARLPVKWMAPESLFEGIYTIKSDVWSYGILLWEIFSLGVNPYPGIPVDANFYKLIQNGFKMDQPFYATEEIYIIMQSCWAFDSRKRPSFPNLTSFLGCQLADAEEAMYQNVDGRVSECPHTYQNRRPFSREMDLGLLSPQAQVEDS
Description: Inhibition of human Flt3 (unknown origin).

The target of assay [4] is Serine/threonine-protein kinase pim-1 (Homo sapiens, UniProt P11309). Description: Inhibition of Pim1 (unknown origin) using luciferase-luciferin based ATP detection reagent by Kinase-Glo assay. In general terms: In Kinase-Glo more light means more ATP remaining.

Where only a bound is given, the exact number is not on record here.

Chain of Serine/threonine-protein kinase pim-1 (P11309 whole entry): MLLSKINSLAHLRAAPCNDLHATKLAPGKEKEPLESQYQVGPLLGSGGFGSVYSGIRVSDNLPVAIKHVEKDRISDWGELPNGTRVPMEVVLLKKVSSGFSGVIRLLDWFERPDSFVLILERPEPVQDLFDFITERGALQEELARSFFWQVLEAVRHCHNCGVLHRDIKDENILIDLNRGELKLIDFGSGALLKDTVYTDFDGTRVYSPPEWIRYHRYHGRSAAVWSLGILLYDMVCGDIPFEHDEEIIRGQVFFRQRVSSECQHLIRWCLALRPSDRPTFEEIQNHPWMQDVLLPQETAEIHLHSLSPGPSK
Chain of Serine/threonine-protein kinase pim-2 (Q9P1W9 whole entry): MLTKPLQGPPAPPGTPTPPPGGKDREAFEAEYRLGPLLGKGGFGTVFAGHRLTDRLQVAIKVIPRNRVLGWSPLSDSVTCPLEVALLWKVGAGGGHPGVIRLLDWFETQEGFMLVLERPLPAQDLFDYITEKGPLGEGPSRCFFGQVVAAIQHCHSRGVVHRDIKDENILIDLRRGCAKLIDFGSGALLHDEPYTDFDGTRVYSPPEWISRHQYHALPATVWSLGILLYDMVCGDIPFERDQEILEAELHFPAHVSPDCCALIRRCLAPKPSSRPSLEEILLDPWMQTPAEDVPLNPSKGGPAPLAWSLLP
Chain of Voltage-gated inwardly rectifying potassium channel KCNH2 (Q12809 whole entry): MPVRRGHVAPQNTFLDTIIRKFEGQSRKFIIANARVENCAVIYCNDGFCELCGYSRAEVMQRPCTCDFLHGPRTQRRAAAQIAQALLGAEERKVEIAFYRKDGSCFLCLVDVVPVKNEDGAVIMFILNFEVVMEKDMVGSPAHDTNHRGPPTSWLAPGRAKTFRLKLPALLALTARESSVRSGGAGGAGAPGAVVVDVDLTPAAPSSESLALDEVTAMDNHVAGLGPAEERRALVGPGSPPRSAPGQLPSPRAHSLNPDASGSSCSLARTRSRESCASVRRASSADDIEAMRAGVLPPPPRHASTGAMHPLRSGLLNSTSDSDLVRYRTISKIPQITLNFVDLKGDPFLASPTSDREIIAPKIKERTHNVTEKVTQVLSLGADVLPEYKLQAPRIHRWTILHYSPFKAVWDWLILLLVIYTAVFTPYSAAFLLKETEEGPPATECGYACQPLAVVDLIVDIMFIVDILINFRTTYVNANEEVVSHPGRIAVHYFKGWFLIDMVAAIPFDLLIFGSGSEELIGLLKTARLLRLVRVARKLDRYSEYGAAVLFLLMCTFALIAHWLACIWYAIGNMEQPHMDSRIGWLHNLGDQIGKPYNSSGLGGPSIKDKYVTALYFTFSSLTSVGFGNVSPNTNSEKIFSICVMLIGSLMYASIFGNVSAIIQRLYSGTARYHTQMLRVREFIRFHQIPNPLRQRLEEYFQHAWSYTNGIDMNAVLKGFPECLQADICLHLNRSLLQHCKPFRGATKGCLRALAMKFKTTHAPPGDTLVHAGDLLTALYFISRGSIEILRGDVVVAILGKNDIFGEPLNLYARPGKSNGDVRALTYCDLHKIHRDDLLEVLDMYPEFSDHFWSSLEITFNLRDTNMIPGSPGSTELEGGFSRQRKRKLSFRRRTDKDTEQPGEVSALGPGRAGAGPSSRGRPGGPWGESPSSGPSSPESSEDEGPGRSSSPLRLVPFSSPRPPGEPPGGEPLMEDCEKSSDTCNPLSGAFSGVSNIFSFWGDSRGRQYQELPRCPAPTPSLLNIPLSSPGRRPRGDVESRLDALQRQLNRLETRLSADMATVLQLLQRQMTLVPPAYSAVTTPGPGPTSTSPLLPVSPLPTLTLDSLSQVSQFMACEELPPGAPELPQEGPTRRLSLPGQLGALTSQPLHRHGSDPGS

The IC50 is the concentration needed to halve the response being measured. `CN1CCC(CNc2ccn3ncc(-c4cccc(OC(F)(F)F)c4)c3n2)CC1`: in assay [1] (read-out: IC50), the 50% inhibitory concentration (IC50) was found to be 1490 nM.
The same measure, in the same setting: then `O=S1(=O)CCC(CNc2ccn3ncc(-c4cccc(Cl)c4)c3n2)CC1`, with 2070 nM.
`CC(C)(O)[C@H]1CC[C@H](Nc2ccn3ncc(-c4cccc(C(F)(F)F)c4)c3n2)CC1`: the IC50 was 525 nM in assay [1] (read-out: IC50), > 30000 nM in assay [2] and 271 nM in assay [3].
With `O=S1(=O)CCC(CNc2ccn3ncc(-c4cccc(C(F)(F)F)c4)c3n2)CC1`, the 50% inhibitory concentration (IC50) in assay [1] (read-out: IC50) was 6020 nM.
`CC(C)(O)[C@H]1CC[C@H](Nc2ccn3ncc(-c4cccc(OC(F)(F)F)c4)c3n2)CC1`: the half-maximal inhibitory concentration (IC50) in assay [1] (read-out: IC50) was 4090 nM.
In the case of `Clc1cccc(-c2cnn3ccc(NCC4CCOCC4)nc23)c1`, the IC50 in assay [1] (read-out: IC50) came to 1640 nM.
Regarding `N[C@H]1CC[C@H](Nc2ccn3ncc(-c4cccc(Cl)c4)c3n2)CC1`, the IC50 in assay [1] (read-out: IC50) was 732 nM.
On the same count and under the same terms, as for `CO[C@H]1CC[C@H](Nc2ccn3ncc(-c4cccc(C(F)(F)F)c4)c3n2)CC1`, the figure is 4660 nM.
For the compound `O=C1CCN(c2ccn3ncc(-c4cccc(Cl)c4)c3n2)CC1`, the results for the 50% inhibitory concentration (IC50) in assay [4] (read-out: IC50) and in assay [1] (read-out: IC50) were 168 nM and 564 nM, respectively.
Take `O[C@H]1CC[C@H](Nc2ccn3ncc(-c4cccc(Cl)c4)c3n2)CC1`: the half-maximal inhibitory concentration (IC50) in assay [1] (read-out: IC50) stood at 506 nM.
As for `CO[C@H]1CC[C@H](Nc2ccn3ncc(-c4cccc(Cl)c4)c3n2)CC1`, the IC50 in assay [1] (read-out: IC50) stood at 1020 nM.
As for `O[C@H]1CC[C@H](Nc2ccn3ncc(-c4cccc(C(F)(F)F)c4)c3n2)CC1`, the concentration for half-maximal inhibition (IC50) in assay [1] (read-out: IC50) was determined as 282 nM; in assay [3], 53 nM.
In the case of `C[C@]1(O)CC[C@H](Nc2ccn3ncc(-c4cccc(OC(F)(F)F)c4)c3n2)CC1`, the half-maximal inhibitory concentration (IC50) in assay [1] (read-out: IC50) was found to be 2040 nM.
Same read-out and setting: as for `N[C@H]1CCCN(c2ccn3ncc(-c4cccc(Cl)c4)c3n2)C1`, the figure is 2000 nM.
With `C[C@]1(O)CC[C@H](Nc2ccn3ncc(-c4cccc(C(F)(F)F)c4)c3n2)CC1`, the 50% inhibitory concentration (IC50) in assay [1] (read-out: IC50) amounted to 639 nM.
With `O=S1(=O)CCC(Nc2ccn3ncc(-c4cccc(C(F)(F)F)c4)c3n2)CC1`, the IC50 result in assay [4] and in assay [1] was “Not Active” in each case.
As for `CO[C@H]1CC[C@H](Nc2ccn3ncc(-c4cccc(OC(F)(F)F)c4)c3n2)CC1`, the IC50 in assay [1] (read-out: IC50) came to 3620 nM.
On to `FC(F)(F)c1cccc(-c2cnn3ccc(NCC4CCOCC4)nc23)c1`, for which the results for the IC50 in assay [4] (read-out: IC50) and in assay [1] (read-out: IC50) were 149 nM and 1970 nM, respectively.
Take `O=S1(=O)CCC(CNc2ccn3ncc(-c4cccc(OC(F)(F)F)c4)c3n2)CC1`: in assay [1] (read-out: IC50), the IC50 came to 8160 nM.
`C[C@]1(O)CC[C@H](Nc2ccn3ncc(-c4cccc(Cl)c4)c3n2)CC1`: the half-maximal inhibitory concentration (IC50) in assay [1] (read-out: IC50) was 1260 nM.
Turning to `N[C@H]1CC[C@H](Nc2ccn3ncc(-c4cccc(OC(F)(F)F)c4)c3n2)CC1`, the half-inhibitory concentration (IC50) in assay [1] (read-out: IC50) is 100 nM.
Regarding `O[C@H]1CC[C@H](Nc2ccn3ncc(-c4cccc(OC(F)(F)F)c4)c3n2)CC1`, the IC50 in assay [1] (read-out: IC50) came to 269 nM; in assay [3], 157 nM.
Turning to `N[C@H]1CCCN(c2ccn3ncc(-c4cccc(OC(F)(F)F)c4)c3n2)C1`, in assay [1] (read-out: IC50), the half-maximal inhibitory concentration (IC50) stood at 987 nM.
With `FC(F)(F)Oc1cccc(-c2cnn3ccc(NCC4CCOCC4)nc23)c1`, the values for the IC50 in assay [4] (read-out: IC50) and in assay [1] (read-out: IC50) were 633 nM and 3730 nM, respectively.
